Measured values published in patent publication US8318950B2, “N-acyl amino acid derivatives, a method for the preparation thereof, a pharmaceutical composition and use thereof as anti-allergic, anti-inflammatory and hypolipidemic agents” (Otkrytoe Aktsionernoe Obschestvo-Otechestvennye Lekarstva, priority 2005, dated 2012).

Tests used:
[1] = system: guinea pig blood basophils; assay: In vitro ovalbumin (OA)-induced blood basophil degranulation of immunized guinea pig; type: cell-based
Experimental: Leukocytes from guinea pig blood were isolated according to the Freemel's method [Immunologicheskiye Metody under edition of G. Frimel/Moscow., “Meditsina” publishers, 1987, p. 222 in the inventor's modification].
Guinea pigs of both sexes weighing from 600 to 800 g were used to conduct the test. The animals were once immunized with a mixture of 10 μg ovalbumin and 100 mg aluminum hydroxide per one animal according to Andersson [Anderson P. Antigen-induced bronchial anaphylaxis in actively sensitized guinea-pigs.//Allergy. 1980. Vol. 35. P. 63-71].
Under ester anesthesia, 15 ml blood were drawn from guinea pig heart. Double precipitation of cells using EDTA and a citrate-containing precipitating liquid was used to isolate basophils in the leukocyte suspension.
Blood was mixed with 5% EDTA.Na2 2H2O (“Sigma”) solution at 9:1 ratio and in 30 minutes it was subjected to mild centrifugation (for 12 minutes at 80 g). Supernatant was collected and centrifuged for 15 minutes at 500 g.
To the remaining cells, a citrate-containing precipitating liquid (3) was added at proportion 3:10 (it was thermostated at 37° C. for 30 minutes). A supernatant fraction enriched by leukocytes was centrifuged for 7 minutes at 100 g. To leukocyte precipitate, 0.85% NaCl solution was added and cellular concentration was brought to 30×10^3 μl.
Protocol of the in vitro basophil degranulation test [Spravochnil po klinicheskim laboratomym metodam issledovaniya (A reference book on clinical-laboratory examination methods)/Edited by E. A. Cost/Moscow, “Meditsina” publishers, 1975, p. 130].
For the test, a centrifuge tube (3 tubes per each sample) was filled with 300 μl cellular suspension, then salt solution of a tested compound (or a salt solution in the control of spontaneous and maximum degranulation) was added and pre-incubated at 37° C. for 15 minutes, then into each tube 300 μl 1% OA solution was added (in the control of spontaneous degranulation a salt solution in the same amount was added) and once more pre-incubated at 37° C. for 10 minutes. Functional leukocyte concentration was 10^4/μl. Samples (100 μl) were taken off from each tube into separate tubes to assess a complete basophil degranulation, and to the remained cells, a cooled salt solution was added (5 ml into each tube) to arrest degranulation reaction, then the tubes were centrifuged for 7 min at 100 g, and from precipitate, preparations for microscopy were prepared. The preparations were fixed and stained according to the method of Seder et al. [Seder R. A. et al. Mouse splenic and bone marrow cell populations that express high—affinity Fcε receptors and produce interleukin-4 are highly enriched in basophils.//Proc. Natl. Acad. USA, 1991, V. 88, P. 2835-2839].
In order to detect a specific basophil granulation, the dye 0.5% alcyanic blue (pH 1.0) was used, nuclei were additionally stained with safranin (0.1% solution in 1% acetic acid). The preparations were used to assess a total degranulation inhibition.
A total degranulation inhibition (DI) (%) was calculated according to the formula: […]
max—% of degranulated basophils at the maximum degranulation (OA)
spontaneous—% of degranulated basophils in spontaneous degranulation (control)
experimental—% of degranulated basophils following exposure to the tested compound.
Assessment of a Complete Basophil Degranulation
Samples selected following basophil degranulation test (100 μl each) were poured into tubes with the dye (0.5% alcyane blue, pH 1.0) at ratio 1:1. Staining was carried out at room temperature for not less than 50 min. Stained basophils were calculated using the Fooks-Rosenthal chamber. Inhibition of a complete basophil degranulation (ICD) was calculated according to the formula: ICD(%)=1−[(Mm(c)−Mm(exper.)]/Mm(c)−Mm(OA)]×100, wherein
M m (c)—mean (by three samples) basophil number in the spontaneous basophil degranulation test
M±m (OA)—mean (by three samples) basophil number in the maximum antigen-induced basophil degranulation test; […]

[2] = system: Sephadex A-25 induced pneumonitis in Wistar rats; assay: Sephadex-induced (6-day) pneumonitis in rats; type: in vivo, rat
Experimental: The Model of Sephadex-Induced (6-Day) Pneumonitis in Rats
Male Wistar rats weighing 270-300 g were used in the tests.
Inflammation in the lungs was induced by a single inhalation of sephadex A-25 (hydrophilic powder with particle sizes from 20 to 80 μm) at dose 5 mg/kg using a dosing device which is a laboratory analog of the inhaler “Cyclohaler” (the Scientific-Research Institute for Pulmonology of the RF).
Sephadex A-25 at dose 5 mg per 1 kg body weight was administered to rats under ester anesthesia using an original dosing device for inhalation administering dry powders. Following administration of Sephadex A-25, Wistar rats rapidly recovered form anesthesia, and no peculiarities in their behavior and respiration character were noted. The substances in the form of a dry powder were administered by inhalation at dose 500 μg/kg 1 hour post Sephadex administration, then for 5 days in succession once daily at one and the same morning hours. The control was represented by two groups: a group of intact animals, and a group of rats administered once with Sephadex by inhalation.
The results of therapeutic action of pharmacological substances on pneumonitis development were assessed using morphological and morphometric parameters (volume density and alveolitis) 6 days post aerosol Sephadex administration.
Histological examinations of the lungs stained by hematoxyline and eosine.
4-5 μm thick histological lung slices were prepared wherein neutrophil number was calculated as well as volume density of alveolitis and emphysema was assessed using the Avtandilov's mesh [Avtandilov G. G., Vvedeniye v kolichestvennuyu pathologicheskuyu morphologiyu.//Moscow. “Meditsina” publishers. 1980. p. 203]. Morphometric examination of pulmonary lymphoid tissue was also carried out. To this end, micro preparations of the lungs were fixed according to the method of Beinenstock et al [Bienenstock J., Johnson N., Perey D. Y. E. Bronchial lymphoid tissue 1. Morphologic characteristics//Lab. Invest. 1973. v. 28 p. 693-698.] […] Volume density of alveolitis and emphysema was determined using the point calculation method.
Broncho-alveolar wash-off was obtained in rats and guinea pigs under hexenal anesthesia by double washing the lungs through the trachea with 10 ml normal saline. Viability of cells was determined in the test with tryptane blue. Absolute number of cells in 1 ml (cytosis) was determined in the broncho-alveolar wash-off liquid (BAW) using the Goryaev's chamber. In the smears of the BAW liquid precipitate obtained using centrifugation at 200 g for 10 minutes and then stained according to Romanovskcy-Gimza, endopulmonary cytogram was calculated (in percent) [Avtsyn A. P., Lukomskij G. I., Romanova L. K. et al. Endopul'monal'naya cytogramma.//Sov. […]

Structure (SMILES): O=C(O)CCCC(=O)N[C@@H](Cc1c[nH]cn1)C(=O)O [Compound IV, N^α-glutaryl-L-histidine]
- Number of completely degranulated basophils ([1]; 10^−3 M): 2.6 ± 2.6 %
- Number of completely degranulated basophils ([1]; 10^−4 M): 2.9 ± 1.6 %
- Number of completely degranulated basophils ([1]; 10^−5 M): 0%
- Number of completely degranulated basophils ([1]; 10^−6 M): 3.9 ± 0.6%
- Number of completely degranulated basophils ([1]; 10^−7 M): 9.1 ± 0.8%
- inhibition at 1000 µM ([1]; Cavia porcellus, 10^−3 M, read-out: Complete degranulation inhibition (CDI)): 99.2 ± 11.2%
- inhibition at 100 µM ([1]; Cavia porcellus, 10^−4 M, read-out: Complete degranulation inhibition (CDI)): 99.5 ± 12%
- inhibition at 10 µM ([1]; Cavia porcellus, 10^−5 M, read-out: Complete degranulation inhibition (CDI)): 114 ± 2.7%
- inhibition at 1 µM ([1]; Cavia porcellus, 10^−6 M, read-out: Complete degranulation inhibition (CDI)): 90 ± 1.8%
- inhibition at 0.1 µM ([1]; Cavia porcellus, 10^−7 M, read-out: Complete degranulation inhibition (CDI)): 76.7 ± 1.5%
- degranulation inhibition in the test of complete OA-induced degranulation ([1]; calcium free medium): ~100%
- emphysema (histological examination of the lungs) ([2]; 500 μg/kg by inhalation): not practically detected
- infiltration of interalveolar septa with neutrophils ([2]; 500 μg/kg by inhalation): not noted
- prevalence of alveolitis (histological examination of the lungs) ([2]; compared to the model group, 500 μg/kg by inhalation): significantly lower
- Absolute number of Macrophags in 1 μl BAW ([2]; dry powder by inhalation 500 μg/kg): 152.4 ± 18.5 cells in 1 μl BAW
